Several values for one entry are separate records, joined by “and”; a condition that tells them apart may be missing. Equal entries are not always repeated.
Target: Genome polyprotein (dengue virus type 2, UniProt P29990)
Type: functional, Thailand/16681/1984

Sequence of Genome polyprotein (P29990 1346-1475 limits assumed): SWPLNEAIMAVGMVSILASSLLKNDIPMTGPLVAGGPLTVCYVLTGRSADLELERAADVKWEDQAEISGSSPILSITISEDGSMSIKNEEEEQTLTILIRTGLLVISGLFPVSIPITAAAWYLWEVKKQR
Sequence of Genome polyprotein (P29990 1476-2093 limits assumed): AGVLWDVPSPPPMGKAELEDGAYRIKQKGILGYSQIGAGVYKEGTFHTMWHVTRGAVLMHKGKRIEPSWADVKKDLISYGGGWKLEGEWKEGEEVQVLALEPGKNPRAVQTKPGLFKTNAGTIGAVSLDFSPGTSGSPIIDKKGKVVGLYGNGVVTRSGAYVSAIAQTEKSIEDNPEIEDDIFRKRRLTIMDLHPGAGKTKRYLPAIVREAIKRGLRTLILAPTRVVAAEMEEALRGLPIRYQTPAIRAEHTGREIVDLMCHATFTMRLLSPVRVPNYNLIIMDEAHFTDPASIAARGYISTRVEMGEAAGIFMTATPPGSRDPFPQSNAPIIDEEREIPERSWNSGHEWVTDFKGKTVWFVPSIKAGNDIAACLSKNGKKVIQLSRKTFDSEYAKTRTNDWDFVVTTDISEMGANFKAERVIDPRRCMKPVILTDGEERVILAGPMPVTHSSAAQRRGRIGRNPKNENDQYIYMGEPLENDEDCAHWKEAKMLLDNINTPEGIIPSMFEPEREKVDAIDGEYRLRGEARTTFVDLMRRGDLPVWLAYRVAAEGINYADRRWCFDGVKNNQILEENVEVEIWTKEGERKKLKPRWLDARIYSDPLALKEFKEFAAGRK

Row | SMILES | IC50
1 | c1ccc2c(CN3CCCc4cnccc4C3)n[nH]c2c1 | > 99.5 µM
2 | NCc1cccc(NC(=O)[C@H](NS(=O)(=O)c2cccc(Cl)c2)c2ccc(OCc3ccccc3)cc2)c1 | > 99.5 µM
3 | O=C(O)c1cc(Cl)ccc1S(=O)(=O)NC1CCN(Cc2ccc(F)c(F)c2)CC1 | > 99.5 µM
4 | NCc1cccc(NC(=O)[C@@H]2C[C@@H]3CC[C@H]2N3C(=O)OCc2ccccc2)c1 | > 99.5 µM
5 | CCCNC(=O)Cn1ccnc(N2CC[C@H](CO)C2)c1=O | > 99.5 µM
6 | COc1cc(C(=O)O)c(S(=O)(=O)Nc2ccc(Oc3ccccc3Cl)cc2)cc1F | 30.3 µM
7 | NCc1ccc(CNC(=O)c2cc(Cl)cc(NC(=O)OCc3ccccc3)c2)cc1 | > 99.5 µM
8 | CN(C)Cc1cccc(-c2ccc(S(=O)(=O)Nc3ccc(Cl)cc3C(=O)O)cc2)c1 | > 99.5 µM
9 | NCc1cccc(NC(=O)[C@@]23C[C@@H](NC(=O)OCc4ccccc4)C[C@@H]2C3)c1 | > 99.5 µM
10 | NCc1cccc(NC(=O)[C@H](NS(=O)(=O)C2CCCCC2)c2ccc(OCc3ccccc3)cc2)c1 | > 99.5 µM
11 | Cn1ccc(-c2n[nH]cc2CN2CCC(c3nc4ccccc4s3)CC2)n1 | > 99.5 µM
12 | NCc1cccc(NC(=O)C[C@@H](NC(=O)OCc2ccccc2)c2ccc3c(c2)OCO3)c1 | > 99.5 µM
13 | O=C(O)c1cc(Cl)ccc1S(=O)(=O)N[C@H]1CCn2c(nnc2C(F)(F)F)C1 | > 99.5 µM
14 | CCn1ccnc(N2CCC[C@H]2C(=O)O)c1=O | > 99.5 µM
15 | NCC1CCN(C(=O)c2cc(Cl)cc(NC(=O)OCc3ccccc3)c2)CC1 | > 99.5 µM
16 | O=C(O)c1cc(Cl)ccc1S(=O)(=O)NC1CCN(c2ncnc3c2CCC3)CC1 | > 99.5 µM
17 | O=C(O)c1cc(Cl)ccc1S(=O)(=O)NC1CCN(S(=O)(=O)Cc2ccccc2)CC1 | > 99.5 µM
18 | O=C(O)c1cc(Cl)ccc1S(=O)(=O)Nc1ccc(C(=O)N2CCCCC2)cc1 | > 99.5 µM
19 | O=C(O)c1cc(Cl)ccc1NS(=O)(=O)c1ccc(-c2ccncc2)cc1 | > 99.5 µM
20 | CN(C)[C@@H]1C[C@H](C(=O)Nc2cccc(CN)c2)CN(C(=O)OCc2ccccc2)C1 | > 99.5 µM
21 | c1cncc(CC2CN(Cc3n[nH]c4ccccc34)C2)c1 | > 99.5 µM
22 | O=C(O)c1cc(Cl)ccc1NS(=O)(=O)c1ccc(-c2cncs2)cc1 | 75.3 µM
23 | O=C(Nc1cc(Cl)cc(C(=O)Nc2cccc(CC3CCNCC3)c2)c1)OCc1ccccc1 | > 99.5 µM
24 | NCc1cccc(NC(=O)C[C@@H](NC(=O)OCc2ccccc2)C2CCCCC2)c1 | 45.2 µM and 44.4 µM

Row | SMILES | IC50
25 | COc1ccc(NS(=O)(=O)c2ccc(Cl)cc2C(=O)O)cc1N1CCCC1=O | > 99.5 µM
26 | O=C(Cn1ccnc(N2CC[C@H](CO)C2)c1=O)Nc1ccccc1 | > 99.5 µM
27 | NCc1cccc(NC(=O)C[C@@H]2[C@H]3CC[C@H](C3)N2C(=O)OCc2ccccc2)c1 | > 99.5 µM
28 | NCc1cccc(NC(=O)[C@H](NC(=O)COc2ccccc2)c2ccc(OCc3ccccc3)cc2)c1 | 55.2 µM
29 | Cn1cc(CCOc2ccc([C@@H](NC(=O)OCc3ccccc3)C(=O)Nc3cccc(CN)c3)cc2)nn1 | > 99.5 µM
30 | Cc1cc(NS(=O)(=O)c2ccc(Cl)cc2C(=O)O)nn1Cc1ccccc1 | > 99.5 µM
31 | NCCc1cccc(NC(=O)c2cc(Cl)cc(NC(=O)OCc3ccccc3)c2)c1 | 49.7 µM and 44 µM
32 | Fc1cccc(F)c1-c1n[nH]cc1CN1CCC(c2nc3ccccc3s2)CC1 | > 99.5 µM
33 | COC(=O)Cc1ccccc1-c1ccc(S(=O)(=O)Nc2ccc(Cl)cc2C(=O)O)cc1 | 35.5 µM
34 | N#Cc1ccc(S(=O)(=O)Nc2ccc(Oc3ccccc3Cl)cc2)c(C(=O)O)c1 | 55.7 µM
35 | O=C(O)c1cc(Cl)ccc1S(=O)(=O)Nc1ccc(-c2n[nH]c3c2CCCC3)cc1 | 73.2 µM
36 | O=C(O)c1cc(Cl)ccc1S(=O)(=O)Nc1ccc(N2CCCCC2)c(F)c1 | > 99.5 µM
37 | Cc1cc(C)cc(C(=O)N2CCC(NS(=O)(=O)c3ccc(Cl)cc3C(=O)O)CC2)c1 | > 99.5 µM
38 | O=C(O)c1cc(Cl)ccc1S(=O)(=O)Nc1ccc(S(=O)(=O)N2CCCCC2)cc1 | > 99.5 µM
39 | CCC1([C@H](NC(=O)OCc2ccccc2)C(=O)Nc2cccc(CN)c2)CCCCC1 | > 99.5 µM
40 | CCOC1CC(S(=O)(=O)N[C@H](C(=O)Nc2cccc(CN)c2)c2ccc(OCc3ccccc3)cc2)C1 (stereo partly specified) | > 99.5 µM
41 | NCc1cccc(NC(=O)[C@H]2[C@@H]3CC[C@@H](C3)[C@H]2NC(=O)OCc2ccccc2)c1 | > 99.5 µM
42 | NCc1cccc(NC(=O)[C@H](NC(=O)CCc2ccccc2)c2ccc(OCc3ccccc3)cc2)c1 | 14.5 µM and 23.3 µM and 22.9 µM
43 | COc1ncc(C(=O)Nc2cccc(CN)c2)cc1NC(=O)OCc1ccccc1 | > 99.5 µM
44 | C[C@@H]1C[C@H](NS(=O)(=O)c2ccc(Cl)cc2C(=O)O)C[C@H](C)N1Cc1ccccc1 | > 99.5 µM
45 | CSc1ccc([C@H](CC(=O)Nc2cccc(CN)c2)NC(=O)OCc2ccccc2)cc1 | 44.2 µM
46 | O=C(O)c1cc(Cl)ccc1S(=O)(=O)NC1CCN(CC2CCOCC2)CC1 | > 99.5 µM
47 | NCc1cccc(NC(=O)c2cc(NC(=O)OCc3ccccc3)cc3c2OC(F)(F)O3)c1 | > 99.5 µM
48 | Cc1cccc(N2CCC(NS(=O)(=O)c3ccc(Cl)cc3C(=O)O)CC2)n1 | > 99.5 µM

Row | SMILES | IC50
49 | c1ccc2sc(C3CCN([C@H]4Cc5[nH]c6ccccc6c5C4)CC3)nc2c1 | > 99.5 µM
50 | CCn1cc(C(=O)NCc2ccccc2)nc(N2CC[C@@H](CO)C2)c1=O | > 99.5 µM
51 | NCc1cccc(NC(=O)[C@@H](NS(=O)(=O)C[C@H]2CCCCO2)c2ccc(OCc3ccccc3)cc2)c1 | > 99.5 µM
52 | O=C(O)c1cc(Cl)c(F)cc1S(=O)(=O)Nc1ccc(Oc2ccccc2Cl)cc1 | 11.2 µM and 10.7 µM
53 | CCc1ncc(CN2CCC(c3nc4ccccc4s3)CC2)[nH]1 | > 99.5 µM
54 | c1ccc2sc(C3CCN(Cc4n[nH]c5c4CCCC5)CC3)nc2c1 | > 99.5 µM
55 | COc1ccc(-c2cc(NS(=O)(=O)c3ccc(Cl)cc3C(=O)O)ccc2OC)cc1 | 48.8 µM
56 | COc1n[nH]cc1CN1CCC(c2nc3ccccc3s2)CC1 | > 99.5 µM
57 | O=C(O)c1cc(Cl)ccc1NS(=O)(=O)c1ccc(-c2cccc(F)c2F)cc1 | 8.82 µM
58 | O=C(O)c1cc(Cl)ccc1NS(=O)(=O)c1ccc(-c2ccc(F)cc2)cc1 | 12.5 µM
59 | CN(C(=O)OCc1ccccc1)[C@H](C(=O)Nc1cccc(CN)c1)c1ccc(OCc2ccccc2)cc1 | 43.8 µM
60 | CCCOc1ccc([C@@H](CC(=O)Nc2cccc(CN)c2)NC(=O)OCc2ccccc2)cc1 | 24.7 µM and 59.4 µM
61 | CN(C)c1cc(-c2ccc(S(=O)(=O)Nc3ccc(Cl)cc3C(=O)O)cc2)ccn1 | 87.6 µM
62 | CN1CC=C(c2ccc(S(=O)(=O)Nc3ccc(Cl)cc3C(=O)O)cc2)CC1 | > 99.5 µM
63 | CS(=O)(=O)c1ccc(-c2cccc([C@H](NC(=O)OCc3ccccc3)C(=O)Nc3cccc(CN)c3)c2)cn1 | > 99.5 µM
64 | c1cncc(C2CC(NCc3n[nH]c4ccccc34)C2)c1 (stereo unspecified) | > 99.5 µM
65 | COc1ccc(NS(=O)(=O)c2ccc(Cl)cc2C(=O)O)cc1S(=O)(=O)N1CCCC1 | > 99.5 µM
66 | O=C(O)c1cc(Cl)ccc1S(=O)(=O)Nc1ccc(F)c(NC(=O)C2CC2)c1 | > 99.5 µM
67 | O=C(O)c1cc(Cl)ccc1S(=O)(=O)NC1CCN(c2nc(C3CC3)cc(C(F)(F)F)n2)CC1 | 15.5 µM
68 | CCc1ccc(S(=O)(=O)N[C@@H](C(=O)Nc2cccc(CN)c2)c2ccc(OCc3ccccc3)cc2)cc1 | 92 µM
69 | CCn1cc(S(=O)(=O)N[C@@H](C(=O)Nc2cccc(CN)c2)c2ccc(OCc3ccccc3)cc2)cn1 | > 99.5 µM
70 | NCc1cccc(NC(=O)c2cc(Br)cc(NC(=O)OCc3ccccc3)c2)c1 | 54.3 µM
71 | O=C(O)c1cc(Cl)ccc1S(=O)(=O)Nc1nn(Cc2ccccc2)cc1Cl | > 99.5 µM

Source: ChEMBL document CHEMBL5604063, “ASAP - DENV-2 NS2B-NS3 protease fluorescence dose response” (2024)
